Data as given in the NIST ThermoML archive (doi:10.1021/je100774p).

Experiment: mn = molality of the nth substance listed, in mol/kg
Conditions: 101 kPa, Liquid; for viscosity: Capillary tube (Ostwald / Ubbelohde) method

O [water] + O=C(O)c1cccnc1
m2 = 0
Conditions	viscosity [mPa·s]
293.15 K	1.003
298.15 K	0.8904
303.15 K	0.7973
308.15 K	0.7194
313.15 K	0.653

O=C(O)c1cccnc1 [3-carboxylpyridine] + O
Conditions	mass density, 293.15 K [kg/m3]	mass density, 298.15 K [kg/m3]	mass density, 303.15 K [kg/m3]	mass density, 308.15 K [kg/m3]	mass density, 313.15 K [kg/m3]	viscosity, 293.15 K [mPa·s]	viscosity, 298.15 K [mPa·s]	viscosity, 303.15 K [mPa·s]	viscosity, 308.15 K [mPa·s]	viscosity, 313.15 K [mPa·s]
m1 = 0.004283	998.41	997.22	995.82	994.28	992.41	1.004	0.8912	0.7981	0.7201	0.6538
m1 = 0.006512	998.5	997.3	995.95	994.35	992.59	1.005	0.8917	0.7985	0.7205	0.6543
m1 = 0.008188	–	–	–	–	–	1.006	0.8923	0.7989	0.7211	0.6547
m1 = 0.00819	998.57	997.41	996.01	994.4	992.64	–	–	–	–	–
m1 = 0.01628	998.83	997.73	996.31	994.75	992.98	1.007	0.8941	0.8005	0.7224	0.6561
m1 = 0.03262	999.56	998.36	996.97	995.44	993.51	1.011	0.8978	0.8035	0.7254	0.6588
m1 = 0.04903	1000.25	999.09	997.72	996.14	994.22	1.015	0.9012	0.8067	0.7282	0.661
m1 = 0.06555	1000.89	999.71	998.32	996.72	994.91	1.018	0.9039	0.8098	0.7312	0.6639
m1 = 0.0821	1001.66	1000.45	999.03	997.41	995.56	1.022	0.9074	0.8127	0.7338	0.6662
m1 = 0.09871	1002.29	1001.09	999.67	998.05	996.21	1.026	0.9109	0.8158	0.7364	0.6686
m1 = 0.1154	1003.05	1001.8	1000.33	998.71	996.84	1.029	0.9144	0.8192	0.7395	0.6713
m1 = 0.1321	1003.75	1002.51	1001.03	999.39	997.49	1.033	0.9178	0.8225	0.742	0.6742
